Measurements as given in patent publication US8188080B2 (Sanford-Burnham Medical Research Institute, priority 2007, dated 2012).
Like-named read-outs stand apart in the source and are kept apart here.

Assays:
CD45 = biological target: T1, CD45 (Homo sapiens, UniProt P08575); assay: PTP-catalyzed hydrolysis of DiFMUP, IC50 determination (CD45); format: biochemical
T1 sequence (P08575 26-1306): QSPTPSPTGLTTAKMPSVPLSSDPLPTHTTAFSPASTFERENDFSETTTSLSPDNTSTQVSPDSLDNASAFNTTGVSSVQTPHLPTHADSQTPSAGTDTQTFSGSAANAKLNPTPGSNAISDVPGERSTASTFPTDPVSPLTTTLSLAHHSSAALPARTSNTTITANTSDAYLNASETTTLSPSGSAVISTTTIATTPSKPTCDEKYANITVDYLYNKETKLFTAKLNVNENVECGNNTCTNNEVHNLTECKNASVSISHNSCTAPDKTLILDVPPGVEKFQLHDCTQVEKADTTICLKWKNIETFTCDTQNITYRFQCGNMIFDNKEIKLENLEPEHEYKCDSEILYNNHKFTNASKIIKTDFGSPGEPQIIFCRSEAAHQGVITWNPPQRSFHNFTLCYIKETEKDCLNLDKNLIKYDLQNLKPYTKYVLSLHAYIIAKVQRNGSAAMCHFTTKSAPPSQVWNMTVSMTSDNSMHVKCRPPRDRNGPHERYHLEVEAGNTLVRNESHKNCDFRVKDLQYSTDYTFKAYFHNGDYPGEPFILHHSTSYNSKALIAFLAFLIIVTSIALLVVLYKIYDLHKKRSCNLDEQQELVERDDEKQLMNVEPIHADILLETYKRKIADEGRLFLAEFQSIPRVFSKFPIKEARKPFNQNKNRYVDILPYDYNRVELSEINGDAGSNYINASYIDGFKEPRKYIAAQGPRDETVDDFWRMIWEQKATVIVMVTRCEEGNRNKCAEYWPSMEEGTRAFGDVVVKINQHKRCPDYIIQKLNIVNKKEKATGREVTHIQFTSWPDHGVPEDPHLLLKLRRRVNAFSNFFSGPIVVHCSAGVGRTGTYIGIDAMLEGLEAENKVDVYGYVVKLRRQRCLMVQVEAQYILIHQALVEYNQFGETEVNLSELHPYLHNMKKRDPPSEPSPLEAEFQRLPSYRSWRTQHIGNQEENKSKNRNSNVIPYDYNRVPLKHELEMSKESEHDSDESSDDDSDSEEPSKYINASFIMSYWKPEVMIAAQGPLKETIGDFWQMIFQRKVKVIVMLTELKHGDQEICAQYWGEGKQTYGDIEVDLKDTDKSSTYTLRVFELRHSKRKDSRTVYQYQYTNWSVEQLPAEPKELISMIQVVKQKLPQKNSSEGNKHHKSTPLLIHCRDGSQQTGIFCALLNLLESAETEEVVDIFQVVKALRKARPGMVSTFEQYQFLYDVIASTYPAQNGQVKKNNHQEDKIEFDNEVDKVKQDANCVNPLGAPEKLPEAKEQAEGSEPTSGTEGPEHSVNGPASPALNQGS
Description: (§1) The PTP-catalyzed hydrolysis of 6,8-difluoro-4-methylumbelliferyl phosphate (DiFMUP) in the presence of the test compound is assayed at 30° C. in a 60 μL 96 well format reaction system in 0.15 M Bis-Tris, pH 6.0 assay buffer having an ionic strength of 150 mM (adjusted with NaCl) and containing 1 mM dithiotreitol and 5% DMSO. At various concentrations of the compound, the initial rate at fixed DiFMUP concentration (equal to the corresponding Km value for each PTP) was determined using a FLx800 micro plate reader (Bio-Tek Instruments, Inc.), an excitation wave length of 360 nm and measuring the emission of the fluorescent reaction product 6,8-difluoro-7-hydroxy-4-methylcoumarin (DiFMU) at 460 nm. The nonenzymatic hydrolysis of the substrate was corrected by measuring the control without addition of enzyme. The IC50 value was determined by plotting the relative activity versus inhibitor concentrations and fitting to Equation 1 using the software GraphPad Prism™ (GraphPad Software, Inc.).
(§2) [formula] In this case, Vi, is the reaction velocity when the inhibitor concentration is [I], V0 is the reaction velocity with no inhibitor and IC50=Ki+Ki[S]/Km.

HePTP = biological target: T2, HePTP (Homo sapiens, UniProt P35236); assay: PTP-catalyzed hydrolysis of DiFMUP, IC50 determination (HePTP); format: biochemical
T2 sequence (P35236 1-360): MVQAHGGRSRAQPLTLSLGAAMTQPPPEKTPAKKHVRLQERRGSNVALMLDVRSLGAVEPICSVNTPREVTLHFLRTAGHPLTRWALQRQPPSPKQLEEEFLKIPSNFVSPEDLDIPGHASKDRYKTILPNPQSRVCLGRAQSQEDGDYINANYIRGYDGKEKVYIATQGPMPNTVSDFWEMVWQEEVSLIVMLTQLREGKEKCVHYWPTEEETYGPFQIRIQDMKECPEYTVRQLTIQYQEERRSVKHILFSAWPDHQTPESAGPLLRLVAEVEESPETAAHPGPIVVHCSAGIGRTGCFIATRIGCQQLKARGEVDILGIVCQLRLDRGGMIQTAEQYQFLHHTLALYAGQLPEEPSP
Description: as §1, §2

[1] = Table II, DiFMUP at Km, pH 6.0, 30° C.

IC50 (CD45) [nM]	Structure (SMILES)	IC50 (CD45; [1]) [nM]	IC50 (HePTP) [nM]	IC50 (HePTP; [1]) [nM]
–	O=C1/C(=C/c2cn(-c3ccccc3)nc2-c2ccc(OCc3ccccc3)cc2)SC(=S)N1CCS(=O)(=O)O [Compound 9]	609	1520	–
–	O=C1/C(=C/c2cn(-c3ccccc3)nc2-c2ccc(OCc3ccc(Cl)cc3)cc2)SC(=S)N1CCS(=O)(=O)O [Compound 10, (Z)-2-[5-({3-[4-(4-chlorobenzyloxy)phenyl]-1-phenyl-1H-pyrazol-4-yl}methylene)-4-oxo-2-thioxothiazolidin-3-yl]ethane sulfonic acid]	460	–	622
303	O=C1/C(=C/c2cn(-c3ccccc3)nc2-c2ccc(S(=O)(=O)N3CCOCC3)cc2)SC(=S)N1CCS(=O)(=O)O [Compound 14]	–	1160	–
